Measured values reported in paper PMC4438233, “Antibacterial effects of Traditional Chinese Medicine monomers against Streptococcus pneumoniae via inhibiting pneumococcal histidine kinase (VicK)” (Frontiers in Microbiology, 2015).
Several values for one entry are separate records, joined by “and”; a condition that tells them apart may be missing. Identical values can stand only once. Like-named read-outs stand apart in the source and are kept apart here. Marks after values point to notes of the source that are not given here.

Columns and labels:
[1] = tested on: S. pneumoniae NCTC7466; experiment: MIC against S. pneumoniae NCTC7466 (D39); format: cell-based; details: Streptococcus pneumoniae
Procedure: (§1) Minimum inhibitory concentration (MIC) assays for the antibacterial activities of the compounds were performed according to the standard […] method of the Clinical and Laboratory Standards Institute of America. MIC testing of drug-resistant S. pneumoniae, drug-resistant S. aureus, streptococci and antimicrobial combination was also performed using the same method. Briefly, the drugs were serially diluted 2-fold into eight wells with C+Y medium, yielding final concentrations ranging from […]. Then 10^6 CFU bacteria were added to each well. Inoculated medium containing 1% DMSO served as a bacterial growth control, whereas uninoculated medium served as a sterility control. The plates were incubated at 37°C for 12–16 h. […] The experiment was repeated three times.

[2] = tested on: pneumococcal strains; experiment: MIC against clinical pneumococcal strains (penicillin susceptible, intermediate, resistant); format: cell-based, Streptococcus pneumoniae; details: for MIC50 / MIC90: Streptococcus pneumoniae
Procedure: as §1

[3] = tested on: S. pyogenes; experiment: MIC against S. pyogenes; format: cell-based; details: Streptococcus pyogenes
Procedure: as §1

[4] = tested on: S. mutans; experiment: MIC against S. mutans; format: cell-based; details: Streptococcus mutans
Procedure: as §1

[5] = tested on: Methicillin resistant S. aureus; experiment: MIC against methicillin resistant S. aureus; format: cell-based; details: Staphylococcus aureus
Procedure: as §1

[6] = tested on: S. aureus; experiment: Checkerboard test with penicillin against S. aureus; format: cell-based, Staphylococcus aureus; details: for MIC: Staphylococcus aureus; for reduction of MIC in combination with PEN: four strains of MRSA
Procedure: as §1
The antimicrobial effects of different combinations of two antimicrobial agents were assayed using the checkerboard test (Bajaksouzian et al., [1997]). Each experiment was repeated thrice. The in vitro interaction between the five drugs with PEN was quantified by the fractional inhibitory concentration (FIC). The FIC index (FICI) was calculated using the following formula:
(2) FIC=FICA+FICB=[A]/MICA+[B]/MICB
where [A] and [B] are the concentrations of drugs A and B, respectively; MICA and FICA are the MIC and FIC of drug A for the organism, respectively; and MICB, and FICB are the MIC and FIC of drug B for the organism, respectively. The FIC index obtained was interpreted as follows: =0.5, synergy; FIC > 2.0, antagonism (Gupta and Kohli, [2003]).

[7] = tested on: clinical S. pneumoniae 19A (CMCC31689); experiment: Mouse colonization model, serotype 19A; format: in vivo, BALB/c mice; details: for Mean log CFU at site of infection: 19A; for reduction of 19A bacterial numbers: at 24 h
Procedure: (§2) In colonization models, the mice were intranasally challenged by 20 μL of clinical drug-resistant strains (pneumococcal serotype 19F or 19A, 1.5 × 10^8 CFU). An hour later, the mice were intraperitoneally injected with 100 μL drugs (2 × MIC) alone or in combination with PEN (2 × MIC). These injections were continued thrice a day for 3 d. Nasal wash and lung tissues were obtained to analyze the bacteria load at 24, 48, and 72 h after drug infection. Then 100 μL aliquots of the samples diluted were plated on blood agar plates. The colonies were counted after incubation overnight at 37°C with 5% CO2.

[8] = tested on: clinical S. pneumoniae 19F (CMCC31693); experiment: Mouse colonization model, serotype 19F; format: in vivo, BALB/c mice; details: for Mean log CFU at site of infection: 19F; for reduction in 19F bacterial numbers: at 24 h
Procedure: as §2

[9] = Penicillin intermediate (n = 12)
[10] = NW (nasal wash), 24 h, i.p. three times a day for 3 days, control 7.29
[11] = NW (nasal wash), 24 h, i.p. three times a day for 3 days, control 6.72

| Structure (SMILES) | MIC of pneumococcal strains, Range [2, 9] [µg/mL] | MIC of pneumococcal strains, MIC50 ([2]; Penicillin resistant (n = 15)) [µg/mL] | MIC of pneumococcal strains, Range ([2]; Penicillin resistant (n = 15)) [µg/mL] | MIC of pneumococcal strains, Range ([2]; Penicillin susceptible (n = 7)) [µg/mL] | reduction of MIC in combination with PEN [6] [fold] | Mean log CFU at site of infection ([7]; Lung, 24 h, control 4.85) [log CFU] | Mean log CFU at site of infection ([7]; Lung, 48 h, control 6.12) | Mean log CFU at site of infection ([7]; Lung, 72 h, control 6.29) | Mean log CFU at site of infection [7, 10] | Mean log CFU at site of infection ([7]; NW, 48 h, control 5.97) | Mean log CFU at site of infection ([7]; NW, 72 h, control 6.01) | reduction of 19A bacterial numbers [7] | Mean log CFU at site of infection ([8]; Lung, 24 h, control 2.82) | Mean log CFU at site of infection ([8]; Lung, 48 h, control 7.57) | Mean log CFU at site of infection ([8]; Lung, 72 h, control 4.95) | Mean log CFU at site of infection [8, 11] [log CFU] | Mean log CFU at site of infection ([8]; NW, 48 h, control 6.27) | Mean log CFU at site of infection ([8]; NW, 72 h, control 7.09) | reduction in 19F bacterial numbers [8] | further results |
| --- | --- | --- | --- | --- | --- | --- | --- | --- | --- | --- | --- | --- | --- | --- | --- | --- | --- | --- | --- | --- |
| CC(C)=CCCC1=CC(=O)c2c(O)ccc(O)c2C1=O [Compound 3, Deoxyshikonin] | 34 to 196 | 17 | 8.5 to 136 | 17 to 34 | 2 | 1 | 2.39 (0.0001)^b log CFU | 1.05 (0.04)^b log CFU | 6.08 (0.026)^b log CFU | 2.76 (0.005)^b log CFU | 3 (0.011)^b log CFU | two-log reduction | 1 (<0.0001)^b log CFU | 1 (0.001)^b log CFU | 2.5 (<0.0001)^b log CFU | 3.30 | 4.6 (0.0002)^b log CFU | 5.52 (<0.0001)^b log CFU | one-log reduction | MIC ([1]; NCTC7466): 17 µg/mL and 62 µM; MIC50 ([2]; read-out: MIC of pneumococcal strains, MIC50, Penicillin intermediate (n = 12)): 68 µg/mL; MIC50 ([2]; read-out: MIC of pneumococcal strains, MIC50, Penicillin resistant (n = 15)): 17 µg/mL; MIC50 ([2]; read-out: MIC of pneumococcal strains, MIC50, Penicillin susceptible (n = 7)): 17 µg/mL; MIC90 ([2]; read-out: MIC of pneumococcal strains, MIC90, Penicillin intermediate (n = 12)): 196 µg/mL; MIC90 ([2]; read-out: MIC of pneumococcal strains, MIC90, Penicillin resistant (n = 15)): 68 µg/mL; MIC90 ([2]; read-out: MIC of pneumococcal strains, MIC90, Penicillin susceptible (n = 7)): 34 µg/mL; MIC [3]: 8.5 µg/mL; MIC [4]: 34 µg/mL; MIC [5]: 34 to 68 µg/mL; MIC, Alone ([6]; MRSA8548991, agent alone): 34 µg/mL; MIC ([6]; ATCC29213, read-out: MIC, Alone): 34 µg/mL; MIC ([6]; MRSA, read-out: MIC, Alone): 68 µg/mL; MIC ([6]; read-out: MIC, Alone): 34 µg/mL |
| CCCCCCCCCCCCOC(=O)c1cc(O)c(O)c(O)c1 [Compound 5, Dodecyl gallate] | 42 to 168 | 42 | 10.5 to 168.8 | 21 to 168 | 2 | 1 | 3 log CFU | 2.82 log CFU | 5.91 (0.021)^b log CFU | 5.28 log CFU | 3.62 (0.033)^b log CFU | two-log reduction | 3.9 (0.0001)^b log CFU | 3 (0.006)^b log CFU | 2.8 (<0.0001)^b log CFU | 2.16 | 5.55 log CFU | 5.82 (<0.0001)^b log CFU | one-log reduction | MIC ([1]; S. pneumoniae NCTC7466 (D39), read-out: MIC): 21 µg/mL; MIC ([1]; S. pneumoniae NCTC7466 (D39), value in parentheses, read-out: MIC): 62 µM; MIC50 ([2]; Penicillin intermediate (n = 12), read-out: MIC of pneumococcal strains, MIC50): 84 µg/mL; MIC90 ([2]; Penicillin intermediate (n = 12), read-out: MIC of pneumococcal strains, MIC90): 168 µg/mL; MIC50 ([2]; Penicillin resistant (n = 15), read-out: MIC of pneumococcal strains, MIC50): 42 µg/mL; MIC90 ([2]; Penicillin resistant (n = 15), read-out: MIC of pneumococcal strains, MIC90): 169 µg/mL; MIC50 ([2]; Penicillin susceptible (n = 7), read-out: MIC of pneumococcal strains, MIC50): 42 µg/mL; MIC90 ([2]; Penicillin susceptible (n = 7), read-out: MIC of pneumococcal strains, MIC90): 42 µg/mL; MIC ([3]; S. pyogenes clinical isolate, 10^6 CFU/ml, read-out: MIC): 42 µg/mL; MIC ([4]; S. mutans clinical isolate, 10^6 CFU/ml, read-out: MIC): 42 µg/mL; MIC ([5]; Methicillin resistant S. aureus (4 isolates), 10^6 CFU/ml, read-out: MIC): 84.4 to 336 µg/mL; MIC ([6]; ATCC29213, S. aureus ATCC29213, agent alone, read-out: MIC, Alone): 168 µg/mL; MIC ([6]; MRSA8506305, agent alone, read-out: MIC, Alone): 337 µg/mL; MIC ([6]; MRSA8548991, agent alone, read-out: MIC, Alone): 84.4 µg/mL; MIC ([6]; MRSA, MRSA 8569082, agent alone, read-out: MIC, Alone): 84.4 µg/mL |
